Values after ≈ are worked out from the molar mass of the structure shown. Active and inactive are the calls of the source. The rule behind the calls is not given here.
What was measured:
KB = experiment: Cytotoxicity against human KB cells; format: functional, cell-based
LoVo = experiment: Cytotoxicity against human LoVo cells; format: functional, cell-based
Human alphaherpesvirus 2 = experiment: Antiviral activity against HSV2; format: functional
P388 = experiment: Cytotoxicity against mouse P388 cells; format: functional, cell-based

Compound | IC50 (KB) | IC50 (LoVo) | MIC (Human alphaherpesvirus 2) | IC50 (P388) | Activity (P388)
COc1cccc2c1[nH]c1c(C3=C[C@@]4(O)CC/C=C\CCCCN5CC[C@@H]3[C@]3(C[C@@H]6/C=C\CCCCN6[C@H]34)C5)nccc12 [8-METHOXYMANZAMINE A] | 0.33 µg/mL (≈ 0.57 µM) | 0.1 µg/mL (≈ 0.173 µM) | 0.1 µg/mL (≈ 0.173 µM) |  | 
O[C@]12C=C(c3nccc4c3[nH]c3ccccc34)[C@@H]3CCN(CCCC/C=C\CC1)C[C@@]31C[C@@H]3/C=C\CCCCN3[C@H]12 [MANZAMINE A] | 0.05 µg/mL (≈ 0.0911 µM) | 0.15 µg/mL (≈ 0.273 µM) | 0.05 µg/mL (≈ 0.0911 µM) | 0.07 µg/mL (≈ 0.128 µM) | 
Oc1cccc2c1[nH]c1c(C3=C[C@@]4(O)CC/C=C\CCCCN5CC[C@@H]3[C@]3(CC6/C=C\CCCCN6[C@H]34)C5)nccc12 (stereo partly specified) | 0.3 µg/mL (≈ 0.531 µM) | 0.26 µg/mL (≈ 0.46 µM) | 0.1 µg/mL (≈ 0.177 µM) |  | inactive
